Data as given in patent US20240299559A1, “COMPOUNDS THAT MEDIATE PROTEIN DEGRADATION AND METHODS OF USE THEREOF” (Monte Rosa Therapeutics, Inc., priority 2021, published 2024).

What was measured:
CDK2 = molecular target: T1, CDK2 (Homo sapiens, UniProt P24941); assay: CDK2 HiBiT assay (degradation, Dmax); type: cell-based; details: HEK293 clonal lines with CRISPR KI HiBiT tag on CDK2, stably expressing LgBiT; 24 hours incubation
T1 construct: HEK293 clonal lines with CRISPR KI HiBiT tag on CDK2 proteins; host or cells: HEK293 clonal line with CRISPR knock-in HiBiT on CDK2, stably expressing LgBiT
Method in brief: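 HEK293 with endogenous HiBiT-tagged CDK2 and stable LgBiT, 5000 cells/well, treated 24 h at 37 °C (compound source plate 30 μM). Luminescence after HiBiT lysis reagent 15 min, normalized to plate controls; 3-parameter logistic fit (Hill slope 1) gives EC50 and Dmax.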

CRBN-DDB1 = CRBN-DDB1 (Homo sapiens, UniProt Q96SW2); assay: Compound binding to CRBN by HTRF assay; details: CRBN-DDB1 2.5 nM, Cy5-Thalidomide 100 nM probe; Ki from geometric mean of IC50 by Cheng-Prustoff transformation
CRBN-DDB1, sequence (Q96SW2 whole entry): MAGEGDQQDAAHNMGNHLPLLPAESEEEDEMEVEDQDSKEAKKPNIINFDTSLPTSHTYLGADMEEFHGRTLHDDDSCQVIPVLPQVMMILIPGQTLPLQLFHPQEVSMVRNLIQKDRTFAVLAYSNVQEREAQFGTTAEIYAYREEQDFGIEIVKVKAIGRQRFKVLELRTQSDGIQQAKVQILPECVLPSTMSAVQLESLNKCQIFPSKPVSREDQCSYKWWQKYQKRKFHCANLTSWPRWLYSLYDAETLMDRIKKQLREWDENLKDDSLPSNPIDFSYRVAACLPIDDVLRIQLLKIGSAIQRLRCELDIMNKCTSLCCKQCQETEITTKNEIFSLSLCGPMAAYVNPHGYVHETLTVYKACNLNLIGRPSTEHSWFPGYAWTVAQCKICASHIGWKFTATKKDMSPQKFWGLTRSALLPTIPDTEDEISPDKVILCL
CRBN-DDB1, sequence (Q16531 whole entry partner): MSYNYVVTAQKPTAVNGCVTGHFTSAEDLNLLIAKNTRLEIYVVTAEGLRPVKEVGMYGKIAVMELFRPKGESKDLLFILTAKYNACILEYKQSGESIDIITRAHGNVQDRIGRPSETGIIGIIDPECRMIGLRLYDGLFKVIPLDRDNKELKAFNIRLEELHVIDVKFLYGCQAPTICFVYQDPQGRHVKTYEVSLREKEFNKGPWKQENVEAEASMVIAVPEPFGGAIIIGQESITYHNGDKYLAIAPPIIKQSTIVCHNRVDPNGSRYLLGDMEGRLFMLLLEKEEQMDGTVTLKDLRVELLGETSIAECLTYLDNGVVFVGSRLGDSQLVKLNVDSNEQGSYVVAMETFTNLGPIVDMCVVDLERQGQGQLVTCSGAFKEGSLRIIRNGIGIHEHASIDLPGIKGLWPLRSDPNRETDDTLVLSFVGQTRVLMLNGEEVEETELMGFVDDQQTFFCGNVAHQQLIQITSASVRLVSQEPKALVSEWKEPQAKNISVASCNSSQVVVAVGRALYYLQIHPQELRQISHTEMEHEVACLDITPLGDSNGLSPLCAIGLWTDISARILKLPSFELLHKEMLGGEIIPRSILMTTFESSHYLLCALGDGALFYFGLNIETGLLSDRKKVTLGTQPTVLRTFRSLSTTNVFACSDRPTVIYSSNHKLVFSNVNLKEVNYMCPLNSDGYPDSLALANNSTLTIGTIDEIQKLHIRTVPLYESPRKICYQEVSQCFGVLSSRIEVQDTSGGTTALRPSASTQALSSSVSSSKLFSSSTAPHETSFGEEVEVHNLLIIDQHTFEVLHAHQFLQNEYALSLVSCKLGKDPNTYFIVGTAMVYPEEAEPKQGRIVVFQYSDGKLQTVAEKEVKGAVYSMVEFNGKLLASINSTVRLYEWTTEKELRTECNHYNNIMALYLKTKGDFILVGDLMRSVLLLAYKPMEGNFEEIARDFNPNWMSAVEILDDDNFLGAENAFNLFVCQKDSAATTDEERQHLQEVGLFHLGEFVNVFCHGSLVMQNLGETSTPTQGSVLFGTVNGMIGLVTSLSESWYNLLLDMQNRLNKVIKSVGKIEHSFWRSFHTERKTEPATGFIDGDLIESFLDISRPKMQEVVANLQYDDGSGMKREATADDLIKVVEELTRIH
Method in brief: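 HTRF competition used 2.5 nM His-tagged CRBN-DDB1, anti-His terbium cryptate and 100 nM Cy5-thalidomide probe in 20 mM HEPES, 20 mM NaCl, 0.2 mM TCEP, 0.2 mM EDTA, 0.005% Tween20. Compounds ran as 10-point 1:3 series for 30 min at ambient temperature, with the 665/620 nm signal normalized to lenalidomide and DMSO controls. Ki came from geometric-mean IC50 by Cheng-Prusoff.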

SMILES	Dmax (CDK2) [%]	Ki (CRBN-DDB1) [nM]
CC[C@H](Cc1ccccc1)OC(=O)NCc1ccc2c(c1)C(=O)N(C1CCC(=O)NC1=O)C2 (stereo partly drawn) [Compound 68, (2R)-1-phenylbutan-2-yl N-{[2-(2,6-dioxopiperidin-3-yl)-3-oxo-2,3-dihydro-1H-isoindol-5-yl]methyl}carbamate]	≤ 10	100 to 1000
CCOc1c(C)cc(COC(=O)NCc2ccc3c(c2)C(=O)N(C2CCC(=O)NC2=O)C3)cc1C (centres unmarked) [Compound 34, (4-ethoxy-3,5-dimethylphenyl)methyl N-{[2-(2,6-dioxopiperidin-3-yl)-3-oxo-2,3-dihydro-1H-isoindol-5-yl]methyl}carbamate]	10 to 50	≤ 100
O=C1CCC(N2Cc3ccc(CNC(=O)OCc4cccc(OCC(F)(F)F)c4)cc3C2=O)C(=O)N1 (centres unmarked) [Compound 54, [3-(2,2,2-trifluoroethoxy)phenyl]methyl N-{[2-(2,6-dioxopiperidin-3-yl)-3-oxo-2,3-dihydro-1H-isoindol-5-yl]methyl}carbamate]	10 to 50	100 to 1000
O=C1CCC(N2Cc3ccc(CNC(=O)OCc4cccc([N+](=O)[O-])c4)cc3C2=O)C(=O)N1 (centres unmarked) [Compound 32, (3-nitrophenyl)methyl N-{[2-(2,6-dioxopiperidin-3-yl)-3-oxo-2,3-dihydro-1H-isoindol-5-yl]methyl}carbamate]	≤ 10	100 to 1000

Continued, values first:

Dmax (CDK2) [%]	Ki (CRBN-DDB1) [nM]	SMILES
10 to 50	≤ 100	COc1ccc(COC(=O)NCc2ccc3c(c2)C(=O)N(C2CCC(=O)NC2=O)C3)cc1C(C)C (centres unmarked) [Compound 47, [4-methoxy-3-(propan-2-yl)phenyl]methyl N-{[2-(2,6-dioxopiperidin-3-yl)-3-oxo-2,3-dihydro-1H-isoindol-5-yl]methyl}carbamate]
10 to 50	≤ 100	O=C1CCC(N2Cc3ccc(CNC(=O)OCc4ccc(OC(F)(F)F)cc4F)cc3C2=O)C(=O)N1 (centres unmarked) [Compound 57, [2-fluoro-4-(trifluoromethoxy)phenyl]methyl N-{[2-(2,6-dioxopiperidin-3-yl)-3-oxo-2,3-dihydro-1H-isoindol-5-yl]methyl}carbamate]
10 to 50	≤ 100	Cc1ncsc1-c1ccc(COC(=O)NCc2ccc3c(c2)C(=O)N(C2CCC(=O)NC2=O)C3)cc1 (centres unmarked) [Compound 52, [4-(4-methyl-1,3-thiazol-5-yl)phenyl]methyl N-{[2-(2,6-dioxopiperidin-3-yl)-3-oxo-2,3-dihydro-1H-isoindol-5-yl]methyl}carbamate]
